Source: patent US8093393B2, “Cationic ceramides, and analogs thereof, and their use for preventing or treating cancer” (MUSC Foundation for Research Development, priority 2004, dated 2012)
Where two headings read alike, the source gives them in different places.

What was measured:
UM-SCC-22A cells [1] = assay: MTT cell survival assay and isobologram studies; assay type: cell-based, human
Experimental: Human head and neck cancer cell lines UM-SCC-1 (retromolar trigone/floor of the mouth), UM-SCC-12 (primary tumor of larynx), and UM-SCC-22A cells were obtained from clinical samples. Cells were grown in DMEM containing 10% FCS and 1% penicillin/streptomycin at 37° C. in 5% CO2.
MTT cell survival assay and isobologram studies. The concentrations of agents that inhibited cell growth by 50% (IC50) were determined from cell survival plots obtained by MTT. Triplicate wells were used for each treatment. The final concentration of DMSO (a solvent for conventional ceramides, GMZ and DOX) in the growth medium was less than 0.1% (v/v) which has no effect on cell growth and survival. Pyridinium ceramides were dissolved in sterile water or growth medium. In short, after cells (5-10×10^3/well) were seeded in 96-well-plates for 24 hr, they were treated with increasing concentrations of ceramide analogs for an additional 48 or 96 hr. For combination treatments, ceramides and chemotherapeutic agents (gemcitabine (GMZ) or doxorubicin (DOX)) were added to the growth medium simultaneously during treatment. Isobologram plots were then constructed using IC50 values of the two agents alone or in combination obtained from MTT assays. A straight line joining points on x- and y-axes represent the IC50 concentrations of two agents, and the points representing the IC50 concentrations of the combination of the two agents are represented as scatter plots on the same graphs. In general, the points that fall within the left of the straight line indicate synergism. The experiments were performed as triplicates in at least 3 independent experiments.
Human head and neck cancer cell lines UM-SCC-1 (retromolar trigone/floor of the mouth), UM-SCC-14A (SCC of anterior floor of the mouth), and UM-SCC-22A (SCC of hypopharynx) cells were obtained. Cells were grown in DMEM containing 10% FCS and 1% penicillin/streptomycin at 37° C. in 5% CO2.
MTT cell survival assay and isobologram studies. The concentrations of agents that inhibited cell growth by 50% (IC50) were determined from cell survival plots obtained by MTT assays. […] In general, the points that fall within the left of the straight line indicate synergism. The experiments were performed as triplicates in at least 3 independent experiments. Error bars represent standard deviations.

UM-SCC-1 cells = assay: MTT cell survival assay; assay type: cell-based, human; conditions: UM-SCC-1, 96 hr; read-out: IC50, cell survival
Experimental: (§1) Cell lines and culture conditions. […] Cells were grown in DMEM containing 10% FCS and 1% penicillin/streptomycin at 37° C. in 5% CO2. The Wi-38 human lung fibroblasts were obtained from American Type Culture Collection, and were grown in DMEM as described above. Adult human epidermal keratinocytes were purchased from Cascade Biologics, and were maintained in EpiLife medium with growth supplements as described by the manufacturer.
(§2) MTT cell survival assay and isobologram studies. […] Triplicate wells were used for each treatment. The final concentration of DMSO (a solvent for conventional ceramides, GMZ and DOX) in the growth medium was less than 0.1% (v/v) which has no effect on cell growth and survival. Pyridinium ceramides were dissolved in sterile water or growth medium. In short, after cells (5-10×10^3/well) were seeded in 96-well-plates for 24 hr, they were treated with increasing concentrations of ceramide analogs for an additional 48 or 96 hr. For combination treatments, ceramides and chemotherapeutic agents (gemcitabine (GMZ) or doxorubicin (DOX)) were added to the growth medium simultaneously during treatment. Isobologram plots were then constructed using IC50 values of the two agents alone or in combination obtained from MTT assays. […]

UM-SCC12 cells = assay: MTT cell survival assay; assay type: cell-based, human; conditions: UM-SCC12, 96 hr
Experimental: as §1, §2

[2] = system: Wi-38 human lung fibroblasts; assay: MTT cell survival assay, non-cancerous cells; assay type: cell-based; conditions: Wi-38 fibroblasts, DMEM; read-out: IC50, cell growth in DMEM
Experimental: as §1
(§3) MTT cell survival assay and isobologram studies. […] Triplicate wells were used for each treatment. The final concentration of DMSO (a solvent for conventional ceramides, GMZ and DOX) in the growth medium was less than 0.1% (v/v) which has no effect on cell growth and survival. Pyridinium ceramides were dissolved in sterile water or growth medium. In short, after cells (5-10×10^3/well) were seeded in 96-well-plates for 24 hr, they were treated with increasing concentrations of ceramide analogs for an additional 48 or 96 hr. For combination treatments, ceramides and chemotherapeutic agents (gemcitabine (GMZ) or doxorubicin (DOX)) were added to the growth medium simultaneously during treatment. Isobologram plots were then constructed using IC50 values of the two agents alone or in combination obtained from MTT assays. A straight line joining points on x- and y-axes represent the IC50 concentrations of two agents, and the points representing the IC50 concentrations of the combination of the two agents are represented as scatter plots on the same graphs.

[3] = system: adult human epidermal keratinocytes (HEK); assay: MTT cell survival assay, non-cancerous cells; assay type: cell-based
Experimental: as §1, §3

UM-SCC-22A cells [4] = assay: Apoptotic cell death by annexin V staining; assay type: cell-based, human
Text: Thus, these ceramide analogs appear to exert minimal apoptotic activity on their own, with selective cell cycle arrest in these cells.

telomerase [5] = assay: Telomerase activity (TRAP) in treated cells; assay type: cell-based, human; conditions: UM-SCC-22A
Experimental: (§4) FIGS. 13A to 13B. Roles of CCPS on cell cycle profiles, and telomerase activity of UM-SCC-22A cells. (FIG. 13A) The effects of D-e-C6—, D-e-C12- and L-th-C12-pyridinium ceramides (at 1 μM for 48 hr) on cell cycle profiles of UM-SCC-22A cells were determined and compared to that of untreated cells using flow cytometry as described in Materials and Methods. (FIG. 13B) The effects of 0, 100, 250 and 500 nM L-t-C6-Pyr-Cer (LCL-124) (lanes 1-4, respectively) at 96 hr treatment in UM-SCC-22A cells on telomerase activity was assessed using TRAP assay. Lanes 5 and 6 contain positive (+) and negative (−) controls. To examine whether C6-Pyr-Cer inhibits telomerase activity directly, cell extracts (as shown in lane 1) were incubated in the presence of various concentrations of L-th-C6-Pyr-ceramide (LCL-124; 10, 20 and 100 μM) and telomerase activity was determined using TRAP assay (lanes 7-9, respectively). The presence of non-telomeric 36 bp internal standard (IS) in the TRAP assay serves as a control for polymerase chain reaction, and used for quantitation/normalization of the activity of telomerase. The results shown are representative of at least two independent experiments.
FIGS. 14A to 14D. […] (FIG. 14A) The effects of various chemotherapeutic agents on cell growth in UM-SCC-22A cells were determined using MTT assays, and the IC50 concentrations of each agent were determined from cell growth plots as described. (FIG. 14B) The synergistic effects of DOX and L-th-C6-Pyr-Cer (LCL-124) on cell growth were assessed using isobologram studies as described in Materials and Methods. (FIG. 14C) The effects of 1 μM L-th-C6-Pyr-Cer (LCL-124) or cetyl-pyridinium-bromide, without ceramide conjugate (used as a control) on the growth inhibition potential of GMZ in UM-SCC-22A cells were determined using MTT assays. (FIG. 14D) The effects of GMZ (100 nM), L-th-C6-Pyr-Cer (LCL-124; 1 μM) or GMZ and L-th-C6-Pyr-Cer (LCL-124) (100 nM and 1 μM, respectively) on telomerase activity in UM-SCC-22A cells at 48 hr were examined using TRAP assay, and compared to that of untreated controls (lanes 2, 3, 4 and 1, respectively). The data shown are representative of at least two independent experiments performed in triplicate samples. Standard deviations in each sample were between 0.1-0.5.
Determination of telomerase activity. Telomerase activity in cell extracts was measured by the PCR-based telomere repeat amplification protocol (TRAP) using TRAPeze kit (Intergen, Gaithersburg, Md.) which includes a 36-bp internal control to allow quantification of activity. In short, the intensity of telomere-specific DNA bands, measured using Quantity One (BioRad) software, were normalized to the intensity of internal control bands for each sample on polyacrylamide gels for quantification.

telomerase [6] = target: T1, telomerase (Homo sapiens, UniProt O14746); assay: Telomerase activity (TRAP), compound applied directly to cell extracts; assay type: biochemical; conditions: 10, 20 and 100 μM
T1 construct: endogenous in cells; host or cells: UM-SCC-22A
Experimental: as §4, with “The results shown are representative of at least two independent experiments.” left out
Determination of telomerase activity. Telomerase activity in cell extracts was measured by the PCR-based telomere repeat amplification protocol (TRAP) using TRAPeze kit (Intergen, Gaithersburg, Md.) which includes a 36-bp internal control to allow quantification of activity. […]

T1 sequence (O14746 whole entry): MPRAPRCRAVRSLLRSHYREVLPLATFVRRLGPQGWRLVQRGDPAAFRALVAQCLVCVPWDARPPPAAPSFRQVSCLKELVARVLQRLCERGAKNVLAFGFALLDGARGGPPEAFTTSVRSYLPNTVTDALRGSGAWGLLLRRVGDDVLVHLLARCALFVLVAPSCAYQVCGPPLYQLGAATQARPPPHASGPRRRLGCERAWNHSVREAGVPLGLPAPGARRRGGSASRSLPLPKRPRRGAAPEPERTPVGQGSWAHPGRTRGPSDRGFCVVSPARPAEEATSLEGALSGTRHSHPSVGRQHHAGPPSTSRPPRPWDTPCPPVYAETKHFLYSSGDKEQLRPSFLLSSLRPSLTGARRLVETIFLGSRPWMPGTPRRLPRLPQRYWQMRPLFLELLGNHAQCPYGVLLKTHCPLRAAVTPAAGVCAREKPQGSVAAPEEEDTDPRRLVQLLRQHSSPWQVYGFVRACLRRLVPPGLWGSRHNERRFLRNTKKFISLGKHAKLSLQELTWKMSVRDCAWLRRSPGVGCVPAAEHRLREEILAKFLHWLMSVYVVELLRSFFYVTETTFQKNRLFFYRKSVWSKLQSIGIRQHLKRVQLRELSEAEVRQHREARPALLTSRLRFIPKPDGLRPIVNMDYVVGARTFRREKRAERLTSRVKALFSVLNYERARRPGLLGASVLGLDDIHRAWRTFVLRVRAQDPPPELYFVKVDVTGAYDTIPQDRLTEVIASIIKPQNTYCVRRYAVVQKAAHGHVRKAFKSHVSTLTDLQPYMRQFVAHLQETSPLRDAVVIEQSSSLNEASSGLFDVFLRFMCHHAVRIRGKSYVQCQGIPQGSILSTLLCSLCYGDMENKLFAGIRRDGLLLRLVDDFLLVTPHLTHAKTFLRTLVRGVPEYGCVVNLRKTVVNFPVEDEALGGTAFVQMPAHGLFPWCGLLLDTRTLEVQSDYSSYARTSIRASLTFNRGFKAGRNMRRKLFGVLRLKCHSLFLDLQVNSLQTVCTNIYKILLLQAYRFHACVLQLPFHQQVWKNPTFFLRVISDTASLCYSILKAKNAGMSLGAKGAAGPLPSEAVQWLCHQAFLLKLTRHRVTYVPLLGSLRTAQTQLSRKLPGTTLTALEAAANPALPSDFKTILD
T1 sequence (O60832 whole entry partner): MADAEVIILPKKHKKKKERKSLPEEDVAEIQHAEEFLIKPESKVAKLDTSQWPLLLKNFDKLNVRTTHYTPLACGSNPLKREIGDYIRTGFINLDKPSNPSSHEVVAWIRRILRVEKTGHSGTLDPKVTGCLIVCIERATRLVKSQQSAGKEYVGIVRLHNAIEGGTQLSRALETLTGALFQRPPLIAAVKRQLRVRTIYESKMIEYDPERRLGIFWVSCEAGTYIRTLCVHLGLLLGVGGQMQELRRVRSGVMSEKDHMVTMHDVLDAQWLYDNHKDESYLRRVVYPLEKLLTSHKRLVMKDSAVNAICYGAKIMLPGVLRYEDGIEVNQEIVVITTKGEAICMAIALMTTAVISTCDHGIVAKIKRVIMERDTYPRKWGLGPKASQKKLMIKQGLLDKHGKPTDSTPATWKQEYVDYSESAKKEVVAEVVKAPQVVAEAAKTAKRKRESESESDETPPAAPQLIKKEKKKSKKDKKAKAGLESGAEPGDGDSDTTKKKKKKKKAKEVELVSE
T1 sequence (Q9NPE3 whole entry partner): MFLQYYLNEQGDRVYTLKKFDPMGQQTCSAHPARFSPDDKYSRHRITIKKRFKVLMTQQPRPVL
T1 sequence (Q9NX24 whole entry partner): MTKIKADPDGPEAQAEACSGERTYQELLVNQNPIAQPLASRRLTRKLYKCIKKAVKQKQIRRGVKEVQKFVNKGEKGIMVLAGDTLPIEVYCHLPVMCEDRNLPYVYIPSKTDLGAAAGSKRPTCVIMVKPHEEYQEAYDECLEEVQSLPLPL
T1 sequence (Q9NY12 whole entry partner): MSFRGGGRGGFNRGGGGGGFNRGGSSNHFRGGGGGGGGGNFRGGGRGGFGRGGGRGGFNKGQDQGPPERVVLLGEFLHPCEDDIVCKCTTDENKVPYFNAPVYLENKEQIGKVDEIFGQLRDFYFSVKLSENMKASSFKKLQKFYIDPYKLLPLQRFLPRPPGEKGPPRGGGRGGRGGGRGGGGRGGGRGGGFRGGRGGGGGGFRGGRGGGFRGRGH
T1 sequence (Q9BUR4 whole entry partner): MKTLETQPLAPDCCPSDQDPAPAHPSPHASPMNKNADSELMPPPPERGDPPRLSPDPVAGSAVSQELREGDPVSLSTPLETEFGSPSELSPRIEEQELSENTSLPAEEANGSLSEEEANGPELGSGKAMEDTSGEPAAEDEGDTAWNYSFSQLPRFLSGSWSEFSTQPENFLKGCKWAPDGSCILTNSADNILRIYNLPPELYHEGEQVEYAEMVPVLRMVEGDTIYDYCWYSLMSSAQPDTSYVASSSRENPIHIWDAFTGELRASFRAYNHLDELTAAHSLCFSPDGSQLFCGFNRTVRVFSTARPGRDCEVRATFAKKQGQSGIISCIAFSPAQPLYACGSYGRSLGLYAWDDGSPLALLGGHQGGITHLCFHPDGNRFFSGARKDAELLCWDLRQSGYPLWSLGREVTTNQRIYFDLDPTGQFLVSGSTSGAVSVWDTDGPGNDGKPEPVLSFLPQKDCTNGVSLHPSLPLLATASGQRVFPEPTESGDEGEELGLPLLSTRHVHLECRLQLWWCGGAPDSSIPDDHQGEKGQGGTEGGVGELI

SMILES: CCCCCCCCCCCCCC=CC(O)C(CO)NC(=O)CCCCC[n+]1ccccc1 (stereo not drawn) [C6-Pyr-Cer]
- effect on the growth inhibition by GMZ (UM-SCC-22A cells [1]; UM-SCC-22A, 1 μM with various concentrations of GMZ, 48 hr): enhanced the anti-proliferative effects of GMZ
- interaction with DOX, isobologram (UM-SCC-22A cells [1]; UM-SCC-22A, 25, 50 and 100 nM with DOX, 96 hr): decreased growth synergistically
- fold more effective in inhibiting cell growth than conventional C6-ceramides (UM-SCC-22A cells [1]; UM-SCC-22A, 96 hr): > 4 fold
- optimum concentration for synergistic interaction with DOX (UM-SCC-22A cells [1]; UM-SCC-22A, 96 hr): 50 nM
- IC50 (UM-SCC-22A cells [1]; UM-SCC-22A, 96 hr, DMEM, read-out: IC50, cell growth): ~300 nM
- IC50 (UM-SCC-22A cells [1]; UM-SCC-22A, EpiLife medium, 96 hr, read-out: IC50, cell growth in EpiLife medium): > 2000 nM
- fold more effective in squamous cell carcinoma cells than in non-cancerous fibroblasts or keratinocytes (UM-SCC-22A cells [1]; in vitro): > 4 fold
- IC50 (UM-SCC-1 cells): 250 to 300 nM
- IC50 (UM-SCC12 cells): 250 to 300 nM
- IC50 [2]: > 1000 nM
- IC50 ([3]; HEK, EpiLife medium, 96 hr, read-out: IC50, cell growth in EpiLife medium): > 2000 nM
- IC50 ([3]; keratinocytes, DMEM, read-out: IC50, cell growth in DMEM): > 1000 nM
- apoptotic cell death, annexin V staining (UM-SCC-22A cells [4]): did not show any detectable signal
- inhibition of telomerase activity (telomerase [5]; 100 nM, 96 hr): about 30%
- inhibition of telomerase activity (telomerase [5]; 250 nM, 96 hr): ~50%
- inhibition of telomerase activity (telomerase [5]; 500 nM, 96 hr): ~75%
- inhibition of telomerase activity (telomerase [5]; 48 hr, C6-Pyr-Cer 1 μM, GMZ 100 nM): 30%
- effect on telomerase activity when applied directly to the extracts (telomerase [6]): no significant effect on telomerase activity
